For nine compounds, GI50 and TGI results are on record in PubChem BioAssay (NCI).

Among the test systems are HOP-92 NSCLC; UACC-62 melanoma; SW-620 colon; SF-539 CNS; UO-31 renal; LOX IMVI melanoma; HOP-62 NSCLC; NCI-H460 lung; EKVX NSCLC; SF-268 CNS.
Common to all, as to assay: NCI-60 cell line screen, 48 h

“And” between values parts separate entries of the source, which are not always exact repeats. Identical values can stand only once.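 Results reflect a 48-hour exposure of cells in 96-well plates to compound at five concentrations. Abbreviation: GI50, concentration required for 50% inhibition of growth. The concentration for full growth arrest is given as TGI.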

As for `O=c1oc2ccc(F)cc2c(=O)n1-c1ccc(Br)cc1F`, the GI50 in the test on HOP-92 NSCLC is 0.168 µM; in the test with UACC-62 melanoma it was 0.284 µM; in the test with SW-620 colon, 1.11 µM; with SF-539 CNS it was 0.45 µM; with UO-31 renal, 0.194 µM; in the test on LOX IMVI melanoma, 0.456 µM. Further, the GI50 is 1.64 µM in the test on HOP-62 NSCLC, 0.574 µM with NCI-H460 lung, 1.85 µM with EKVX NSCLC and 0.633 µM in the test with SF-268 CNS. The TGI in the test on HOP-92 NSCLC turned out to be 0.528 µM; in the test with UACC-62 melanoma, 1.16 µM; in the test on SW-620 colon, 25.5 µM; in the test with SF-539 CNS, 6.35 µM; in the test on UO-31 renal, 1.7 µM; in the test with LOX IMVI melanoma, 4.24 µM. Further, the TGI was 7.25 µM with HOP-62 NSCLC, 23.7 µM in the test on NCI-H460 lung, 9.74 µM in the test with EKVX NSCLC and 13.7 µM in the test with SF-268 CNS.
On to `COC(=O)[C@H](Cc1ccccc1)NC(=O)c1csc([C@@H](C[C@H](C(C)C)N(C)C(=O)[C@@H](NC(=O)[C@H]2CCCN2C)C2CC2)OC(C)=O)n1`, for which the GI50 in the test with HOP-92 NSCLC is 0.463 µM; in the test with UACC-62 melanoma it was 1.38 µM; in the test on SW-620 colon, 0.235 µM; in the test with SF-539 CNS, 0.29 µM; with UO-31 renal it was 2.17 µM; in the test on LOX IMVI melanoma, 0.301 µM. Also, the GI50 in the test on HOP-62 NSCLC is 0.831 µM; with NCI-H460 lung, 0.397 µM; in the test with EKVX NSCLC it was 1.97 µM; in the test with SF-268 CNS it was 1.05 µM. In addition, the TGI was more than 9.56 µM in the test with HOP-92 NSCLC; more than 33.3 µM with UACC-62 melanoma; more than 33.3 µM with SW-620 colon; 1.55 µM in the test on SF-539 CNS; more than 27.9 µM with UO-31 renal; more than 33.3 µM in the test with LOX IMVI melanoma. Besides, the TGI in the test on HOP-62 NSCLC, in the test on NCI-H460 lung, with EKVX NSCLC and in the test on SF-268 CNS was more than 33.3 µM in each case.
As for `O=C1C(c2ccccc2)=C(c2ccccc2)[C@H](c2ccccc2)[C@]1(Cc1nnn(-c2ccc([N+](=O)[O-])cc2)c1N1CCOCC1)c1ccccc1`, the TGI is 2.25 µM in the test on HOP-92 NSCLC; more than 37.5 µM in the test with UACC-62 melanoma; more than 37.5 µM in the test on SW-620 colon; more than 37.5 µM with SF-539 CNS; more than 37.5 µM in the test on LOX IMVI melanoma; more than 37.5 µM in the test on HOP-62 NSCLC. For the same compound, the TGI in the test with NCI-H460 lung and in the test with EKVX NSCLC was more than 37.5 µM in each case.
As for `COc1ccc(C2ONC3=NCCN32)cc1` (centres undefined), the GI50 is 40.8 µM with HOP-92 NSCLC; 67.3 µM in the test with UACC-62 melanoma; 46.8 µM in the test on SW-620 colon; 84.8 µM in the test with SF-539 CNS; 14.4 µM in the test with LOX IMVI melanoma; 84.9 µM with HOP-62 NSCLC. The GI50 is 50.8 µM in the test on NCI-H460 lung, more than 100 µM with EKVX NSCLC and 70.5 µM with SF-268 CNS. For the same compound, the TGI is more than 100 µM with HOP-92 NSCLC; more than 100 µM in the test on UACC-62 melanoma; more than 100 µM with SW-620 colon; more than 100 µM with SF-539 CNS; 47.1 µM with LOX IMVI melanoma; more than 100 µM with HOP-62 NSCLC. The TGI in the test with NCI-H460 lung, in the test on EKVX NSCLC and in the test on SF-268 CNS was more than 100 µM in each case.
Regarding `COc1ccc(/C=C(/C(=O)n2cnnn2)c2cc(OC)c(OC)c(OC)c2)cc1`, the GI50 in the test on HOP-92 NSCLC is 6.71 µM; with UACC-62 melanoma, 3.1 µM; in the test on SW-620 colon it was 3.78 µM; with SF-539 CNS it was 3.2 µM; with UO-31 renal it was 5.41 µM; in the test on LOX IMVI melanoma, 3.82 µM. In addition, the GI50 in the test with HOP-62 NSCLC is 4.82 µM; in the test on NCI-H460 lung it was 3.75 µM; with EKVX NSCLC it was 5.48 µM; with SF-268 CNS, 4.04 µM. In addition, the TGI was more than 100 µM in the test with HOP-92 NSCLC; more than 100 µM in the test with UACC-62 melanoma; more than 100 µM with SW-620 colon; 19.9 µM in the test with SF-539 CNS; more than 100 µM in the test on UO-31 renal; more than 100 µM in the test with LOX IMVI melanoma. Further, the TGI in the test with HOP-62 NSCLC, in the test with NCI-H460 lung, in the test on EKVX NSCLC and in the test on SF-268 CNS was more than 100 µM each time.
On to `COc1cc(O)c(C(C)=O)c(O)c1`, for which the TGI in the test with HOP-92 NSCLC was 90.8 µM; with UACC-62 melanoma, more than 100 µM; with SW-620 colon, more than 100 µM; with SF-539 CNS, more than 100 µM; with UO-31 renal, more than 100 µM; in the test on LOX IMVI melanoma, more than 100 µM. Besides, the TGI in the test on HOP-62 NSCLC, in the test on NCI-H460 lung, with EKVX NSCLC and with SF-268 CNS was more than 100 µM throughout.
With `CC[C@H](C)[C@H](NC(=O)[C@H]1CCCCN1C)C(=O)N(C)[C@H](C[C@@H](OC(C)=O)c1nc(C(=O)N[C@@H](Cc2ccccc2)C[C@H](C)C(=O)OC)cs1)C(C)C`, the GI50 with HOP-92 NSCLC was 0.765 µM; with SF-539 CNS, 0.000482 µM and < 0.0025 µM; in the test with UO-31 renal it was 0.0032 µM and 0.0025 µM; in the test on LOX IMVI melanoma it was 0.000536 µM and 0.0025 µM; with HOP-62 NSCLC, 0.00052 µM and 0.0025 µM; in the test on NCI-H460 lung, 0.000295 µM and 0.0025 µM. The GI50 with EKVX NSCLC was 0.000751 µM and 0.0025 µM; in the test with SF-268 CNS it was 0.000466 µM and 0.0025 µM. Besides, the TGI in the test with HOP-92 NSCLC was more than 25 µM; in the test on UACC-62 melanoma, more than 25 µM; in the test with SW-620 colon, more than 25 µM; in the test on SF-539 CNS, 0.00437 µM and < 0.0025 µM; in the test with UO-31 renal, more than 25 µM; in the test with LOX IMVI melanoma, more than 25 µM. The TGI in the test with HOP-62 NSCLC, in the test with NCI-H460 lung, in the test on EKVX NSCLC and with SF-268 CNS was more than 25 µM in each case.
On to `COc1ccc(C2NCCc3c2[nH]c2ccccc32)cc1` (centres undefined), for which the TGI with HOP-92 NSCLC, in the test on UACC-62 melanoma, with SW-620 colon, in the test on SF-539 CNS, in the test with UO-31 renal and with LOX IMVI melanoma was more than 100 µM in each case. The TGI in the test with HOP-62 NSCLC, in the test with NCI-H460 lung, in the test on EKVX NSCLC and in the test on SF-268 CNS was more than 100 µM each time.
Consider `NS(=O)(=O)c1ccc(NC(=O)c2cccn3c(=O)c4ccccc4nc23)cc1`, for which the TGI with HOP-92 NSCLC, with UACC-62 melanoma, in the test with SW-620 colon, in the test on SF-539 CNS, in the test with UO-31 renal and with LOX IMVI melanoma was more than 100 µM each time. Further, the TGI with HOP-62 NSCLC, in the test with NCI-H460 lung, with EKVX NSCLC and in the test on SF-268 CNS was more than 100 µM each time.
